Experimental data published in patent US20030130200A1, “Small peptides and methods for treatment of asthma and inflammation” (Hisatek, LLC, priority 1997, published 2003).
Where no end group is shown, it is not given here. The star is where a group is joined. For = O=C*

Test system: mast cells
Test: Rat skin model for inhibition of mast cell degranulation induced by Compound 48/80 (area of capillary permeability/bluing)
Format: in vivo, rat (male Sprague-Dawley)
Source text: The Rat Skin Model for Determination of Inhibition of Mast Cell Degranulation
Allergy induced asthma results from exposure of substances (allergens) to which an organism has become hypersensitized. Exposure to allergen results in degranulation of mast cells in the lung, releasing leukotrienes and histamines. […] Respiratory symptoms resulting from such an exposure range from mild (itching and sneezing) to potentially fatal (asthma), including in extreme chronic cases death by anaphylaxis.
In this model, the blood plasma of the experimental rat is labeled with the dye trypan blue. This soluble dye is carried in the bloodstream as a passive marker of plasma itself, and is excluded from live cells. Intact blood vessels including the capillary system, retain this dye under normal circumstances. A compound, which induces degranulation of mast cells (resulting in leukotriene and histamine release), is injected into the skin to simulate allergen-induced degranulation. In these experiments, Compound 48/80 was used for this purpose. In the events following leukotriene and histamine release, capillary permeability is increased, and plasma, dyed blue, leaks from capillaries and dyes the skin surrounding the injection site blue. The area of bluing is a measure of the amount of Compound 48/80 injected.
A compound can be tested for “anti-leukotriene” and/or “anti-histamine” activity by mixing it with Compound 48/80 prior to injection.
The rat skin model was undertaken and validated. Various peptides were tested at a predetermined dose for anti-leukotriene and/or anti-histamine activity. The dose selected allowed a general comparison to f-Met-Leu-Phe, which was standard compound for comparison.
A “dose response” titration was performed for some compounds and compared with the standard compound. Observing serial decreases in the size areas of capillary permeability using serially smaller doses of the putative inhibitory compound validates the inhibition of leukotriene and/or histamine release observed in the initial predetermined dose test.
Reagents were obtained from Sigma or Aldrich, with the exception of ketamine, a veterinary anaesthetic that was obtained from various veterinary suppliers. The rats used were male Sprague-Dawley breed, 220-240 g at time of purchase from B&K International.
For the rat skin reaction, rats were anaesthetized with 0.25 ml 10 mg/ml ketamine. 1.0 ml trypan blue in saline (sterile filtered) was administered in a tail vein, and the back of the rat was shaved. Four intradermal injection sites per rat were used for test and control injections.
Compound 48/80 was prepared as a 1.5 mg/ml stock solution in saline. […] Serial dilutions in saline to working levels were prepared just prior to injection of each rat.
Peptides were prepared as a 23 mM stock solution in DMSO, and stored at −20° C. between experiments. At the time of use, the frozen stock solutions were thawed, and appropriate aliquots added to dilutions of Compound 48/80, along with appropriate amounts of DMSO, to result in the ratio of 5 μl DMSO to 0.1 ml aqueous Compound 48/80.
For injections, 0.1 ml Compound […], +/− test compounds were injected intradermally into anaesthetized, dyed, and shaved rats. Following a 15 minute incubation, the rats were sacrificed by cervical dislocation and the back skin was evulsed and placed on a light box. An image of the backlit skin was digitized using a CCD video capture camera and compatible hardware/software. The digitized image was analyzed using a scientific graphics analysis software package, and the areas of capillary permeability (bluing) were integrated and digital values were obtained for further analysis.
A dose response curve was generated using Compound 48/80 at various doses from ca. 0.01 μg through ca 15 μg. […] A dose of 0.15 μg of Compound 48/80 was selected for conducting further tests.
A dose response curve was prepared for the standard compound, f-Met-Leu-Phe, using the selected dose of 0.15 μg Compound 48/80. […]

f-Met-Leu-Phe-Phe (For-MLFF) [Example 9]
Inhibition of degranulation induced by Compound 48/80, dose response curve (doses of 0 to about 230 nM peptide, 0.15 μg Compound 48/80 (FIG. 2, FIG. 3)): Surprisingly remarkable inhibition of degranulation induced by Compound 48/80 was clearly shown
% Degranulation (percent mast cell degranulation produced by 48/80, 100 nanomoles peptide, 0.15 μg Compound 48/80): 1-3%
